For data set [1] the following is noted: constant of the model, taken from literature; cited from earlier work.
The nature of data set [2]: Deoxyribose assay for hydroxyl radical production. The settings on record: for effect on OH• production by copper: relative to Cu2+ alone. The text has this:
Hydroxyl radicals, which are generated in this assay by Fenton-like conditions of copper, ascorbic acid, and H2O2, degrade deoxyribose to give thiobarbituric acid (TBA)-reactive products with absorbance at 532 nm. Ligands added to the reaction mixture attenuate the amount of TBA-reactive species by altering the coordination environment around copper. […] The 2-deoxyribose assay was used to measure hydroxyl radical formation (Halliwell, B.; Gutteridge, […]. Anal. Biochem. 1987, 165, 215-219). A mixture of copper, ascorbic acid, and hydrogen peroxide generates hydroxyl radicals by Fenton-like chemistry. Hydroxyl radicals attack 2-deoxyribose to form malondialdehyde (MDA), which upon heating with TBA under acidic conditions produces a pink chromophore (λmax=532 nm). Chelators that prevent copper from reacting with ascorbic acid and hydrogen peroxide result in less chromophore formation. All assays were performed using 20 mM NaH2PO4 buffered to pH 7.4. The following reagents were added sequentially to obtain a 1 mL buffered solution with these final concentrations: chelator (10-20 μM), CuSO4 (10 μM), 2-deoxyribose (15 mM), H2O2 (100 μM), and ascorbic acid (2 mM). For photolyzed samples, 500 μM solutions of [Cu(OH2)(cage)] in 20 mM pH 7.4 NaH2PO4 buffer were photolyzed in screwtop quartz cuvettes for 4 min in the photoreactor, then immediately diluted into the deoxyribose reaction mixtures to obtain final concentrations of 10 μM in Cu. Stock solutions of CuSO4, ascorbic acid, and H2O2 were prepared fresh daily, other solutions were prepared weekly. […] The temperature was increased to 100° C. for 20 min, then cooled to room temperature and the absorbance at 532 nm was recorded. Values are reported as A/A0 where A0 is the absorbance without chelator present and A is the absorbance with chelator added. The value for CuSO4 alone is A/A0=1. Error bars represent standard deviations from measurements done in at least triplicate.

A short description of data set [3]: Potentiometric and pH-dependent spectrophotometric titrations of CuL. In kind it is physicochemical. The settings on record: for Log β (overall stability constant): pH-dependent spectrophotometric titration, 25° C., 0.1 M NaClO4, Specfit, refined. On the procedure:
Cu(II) perchlorate solutions (0.1 M) were prepared from solid Cu(ClO4)2.6H2O and standardized with 0.05 M EDTA to a murexide endpoint in ammonia buffer. NaOH, HClO4, and NaClO4 solutions (0.1 M) were prepared with boiled nanopure deionized water and were degassed upon cooling to remove dissolved carbonate. NaOH solutions were standardized by titration with both 0.2 M HCl and potassium hydrogen phthalate to a phenolphthalein end point and were stored under Ar; HClO4 stock solutions were prepared from concentrated perchloric acid and standardized by titration with standard NaOH to a phenolphthalein end point. All solutions were degassed with Ar for 45 minutes prior to each experimental run.
Titrations were carried out at 25° C. with 0.1 M NaClO4 supporting electrolyte in a 3-mL cuvette equipped with a pH probe, titrator tip, and stir bar, and blanketed in Ar to preserve an inert environment. The glass-bulb probe (Orion combination pH electrode model 8103BN filled with 3 M NaCl) was calibrated with pH 4 and 7 standard reference buffers (RICCA Chemical Company). CuL solutions were prepared by dissolving [Cu(OH2)(cage)] recrystallized from methanol in 0.1 M NaClO4 to obtain CuL concentrations in the range of 0.5 mM. Initial volumes were between 2 and 2.2 mL. A Schott TITRONIC® 110 plus autotitrator kept under constant Ar sparge was used to deliver 2 to 4 μL aliquots of acid or base through the titrator tip into the reaction cuvette. The solutions were stirred constantly and allowed to equilibrate at least 30 s after each addition before data were collected. All titrations were carried out from low to high and from high to low pH with similar results.
Titration data for the CuL complex show two ionizable protons below pH 5.

Data set [4] can be described thus: Potentiometric titration of the apo-ligand H2cage. Format: physicochemical. The settings on record: pH range 2 to 12.
Data set [5] in a line: Solubility of H2cage in solvents. Format: physicochemical. The text has this:
A ligand H2cage is obtained in a one-pot, two-step synthesis starting from 3-amino-3-(2-nitrophenyl)propionic acid. […] In the presence of Cu2+, however, protons are released from H2cage at pH 3.3 and 4.8, consistent with deprotonation of both amides.

The conditions of data set [6]: cited from earlier work.
Data set [7] can be described thus: Photolysis with 350 nm UV light, followed by UV-vis and LC-MS. Format: physicochemical. The note with it: pH 7.4 phosphate buffer. The text has this: The shift in the d-d band centered at 580 nm indicates a reorganization of the coordination sphere upon photolysis. The band for the intact Cu complex 2 disappears and is replaced by bands corresponding to the expected photoproducts 3 and 4, as confirmed by their mass spectra and by comparison to a picolinamide standard for 3. […] Reduction to Cu1+ is also possible as a result of photolysis, although it would likely reoxidize to Cu2+ under these experimental conditions.
All chemicals were purchased commercially and used without further purification. […] Elemental analysis was performed by Columbia Analytical Services, Inc. IR spectra were measured on a Nicolet 380 FT-IR. High-resolution, fast-atom bombardment (HR-FABMS) mass spectra were recorded on JEOL JMS-SX-102 instrument. […] A Varian Polaris C18 (150×1.0 mm) column was used and peaks were detected by UV absorption at 254 nm. […] UV-vis spectra were recorded on a Cary 50 UV-vis spectrophotometer. […]

Data set [8] can be described thus: Competition study of nitrilotriacetic acid (NTA) vs. cage for Cu2+. The note with it: competition with NTA, 50 mM HEPES pH 7.4, 25° C., refined. Format: binding. On the procedure: Solutions of CuL (where L=cage^2−) were prepared by dissolving [Cu(OH2)cage] that was recrystallized from methanol into 50 mM HEPES (N-(2-hydroxyethyl)-piperazine-N′-2-ethanesulfonic acid) buffer, pH 7.4, with initial concentrations ranging from 03-1.5 mM. The reaction vessel was a 3-mL cuvette and initial solution volumes were 1 mL. All titrations were carried out at 25° C. Aliquots (1-2 μL) of the competitive chelator NTA (100 mM) were pipetted into CuL solutions and monitored spectrophotometrically. After each addition, solutions were manually mixed and equilibrated for 5 min before data were collected. Reported errors in log β were calculated from the standard deviation of three runs.

Like-named read-outs stand apart in the source and are kept apart here.

In the case of `O=C([O-])CN(CC(=O)[O-])CC(=O)O.[Cu+2]` [Cu(NTA)], the “Log β” value in data set [1] is given as 12.7.

Regarding `O=C(CC(NC(=O)c1ccccn1)c1ccccc1[N+](=O)[O-])NCc1ccccn1` (stereo not shown) [H2cage, Pyridine-2-carboxylic acid {1-(2-nitro-phenyl)-2-[(pyridine-2-ylmethyl)-carbamoyl]-ethyl}-amide], the “protection of deoxyribose degradation” value in data set [2] (compared to background reaction of Cu2+ alone, pH 7.4) was determined as 50%. Besides, in data set [3] (in the presence of Cu2+), the “pH at which protons are released from H2cage, higher value” was determined as 4.8 and the “pH at which protons are released from H2cage, lower value” is given as 3.3. In data set [4], the “dissociable (ionizable) protons” value was “no dissociable protons”. In data set [4] (listed as apo-ligand), the “dissociable (ionizable) protons” value is listed as “no ionizable protons”. In addition, in data set [5], the “solubility in methanol and ethanol” value is “very soluble”; the solubility in water result was “moderately soluble”.

With `O=C(O)CN(CC(=O)O)CC(=O)O` [NTA, nitrilotriacetic acid, reference compound], in data set [2] (pH 7.4), the “effect on OH• production by copper” value is reported as “promotes OH• production”. For the same compound, the Kd in data set [6] (pH 7.4, read-out: KD for Cu2+) is 0.023 nM.

For the compound `O=C(O)CN(CC(=O)O)CC(=O)O` [NTAH3], the “Log β” value in data set [1] was 13.76.

Turning to `O=C(O)CN(CC(=O)O)CC(=O)O` [NTAH4], the “Log β” value in data set [1] is given as 14.76.

`O=C1CC(c2ccccc2[N+](=O)[O-])[N](C(=O)c2ccccn2)[Cu]([OH])[N]1Cc1ccccn1` (stereo not shown) [[Cu(OH2)(cage)]]: in data set [2] (photolyzed for 4 min, increase in A532), the “OH• production after uncaging by UV photolysis” value is listed as “increases OH• production”. Besides, the “changes in UV-vis spectrum on exposure to UV light” value in data set [7] is “apparent within seconds”. In addition, in data set [7] (LC-MS), the “time of photolysis until cleavage of the ligand is complete” value was ≤ 4 min. Besides, in data set [3] (pH 7.4, converted from log β, read-out: conditional dissociation constant, KD), the equilibrium dissociation constant (Kd) was 0.016 nM. Moreover, the “Log β (overall stability constant)” value in data set [3] is 10.8; in data set [3] (listed as CuL) it was 10.80 ± 0.01. The “Log β” value in data set [8] worked out at 10.79 ± 0.06.

For the compound `NC(=O)c1ccccn1` [picolinamide], in data set [2] (pH 7.4), the “effect on OH• production by copper” value is recorded as “improve the catalytic properties of the metal”. Further, the “log value for the 1:1 species” value in data set [6] (Cu2+ : ligand 1:1) is recorded as 2.87. Besides, the “log value for the 1:2 species” value in data set [6] (Cu2+ : ligand 1:2) is 5.40.

The values above are taken from patent publication US8440827B2, “Photolabile caged transition metal complexes and methods of using the same” (Duke University, priority 2008, dated 2013).
